Results on one compound are retold here after patent US20100159030A1, “METHODS FOR DETECTING AND MODULATING THE SENSITIVITY OF TUMOR CELLS TO ANTI-MITOTIC AGENTS AND FOR MODULATING TURMORGENICITY” (NewSouth Innovations Pty Limited, priority 2007, published 2010).

One assay deals with NSCLC H460 cells. In words: Drug-treated clonogenic assay (surviving fraction, ID50) on siRNA/shRNA-transfected cells. The class given is cell-based, Human. The settings on record: for IC50: Homo sapiens, NCI-H460, Table 2, read-out: ID50 ± SEM; for RS (relative sensitivity): Table 2; for change in drug sensitivity (clonogenic survival): H460. On the procedure:
(§1) Cells were transfected for 24 h and approximately 600 cells (for Calu-6) or 150 cells (for H460) were seeded into each well of a 6-well plate and allowed to attach for 4-6 h. The cell lines used in this study were not subject to prior drug selection, and are likely to represent intrinsic drug resistance observed in lung carcinoma.
(§2) Cells were then treated with increasing concentrations of various anti-mitotic drugs. Following a 3-day incubation at 37° C., the drug-containing medium was removed and replaced with fresh complete medium. Medium was changed at 3-4 day intervals for 7 to 10 days until visible colonies formed. […] Surviving colonies were simultaneously fixed and stained with 0.5% crystal violet in methanol, rinsed with water to remove excess stain and air-dried overnight.
(§3) The colonies in each well were manually counted, and the results were presented as surviving fraction according to the formula: surviving fraction was calculated as follows: colony number/(number of cells seeded×plating efficiency), where plating efficiency is equivalent to the colony number divided by the number of cells seeded in the drug-free medium. Dose-response curves were plotted for each drug-cell line combination and inhibitory dose (ID50) values were extrapolated from this curve using GraphPad Prism program (GraphPad Software, version 4, San Diego, Calif.). ID50 was defined as the concentration of the drug required to reduce the number of colonies in drug-treated wells to 50% of that of the relevant untreated control wells. The ID50 values were the means of at least four independent experiments.
(§4) To quantitate any change in drug sensitivity, drug treated clonogenic assays were performed. Twenty-four hours after siRNA transfection, cells were harvested and plated into 6-well plates for 6 h, prior to the addition of various drugs as indicated in the figure legends. After 72 h incubation, the drug-containing media was removed and replaced with complete growth media. Medium was changed every 3 days for 7 to 10 days until visible colonies formed. Colonies were simultaneously fixed and stained with 0.5% crystal violet in methanol, and manually counted. Individual stained colonies in each well were counted and the surviving fraction was calculated as follows: colony number/(number of cells seeded×plating efficiency), where plating efficiency equals the colony number divided by the number of cells seeded in drug-free media.

For assay [1], the system named is Calu-6 cells. In words: Drug-treated clonogenic assay on siRNA-transfected cells. The format is cell-based, Human. On the procedure: as §1, §2, §3, §4
The test system of assay [2] is Calu-6 cells. As to the kind of experiment: Immunofluorescent staining of microtubules (α-tubulin) after drug treatment. The settings on record: 1 h, vs control. The class given is cell-based, Human. Here is the method: Transfected Calu-6 cells were grown on sterile chamber slides until 60-70% confluent. Cells were then treated with paclitaxel and vincristine for 1 h at 10 nM. Cells were fixed in methanol and processed for staining as previously described (Don et al. (2004) supra) with minor modifications. Fixed cells were stained with α-tubulin (1:400 in 5% FCS/PBS, Sigma) for 30 min followed by Cy2 anti-mouse fluorescent tagged antibody (1:1,000 in 5% FCS/PBS, GE Healthcare). Slides were mounted on a coverslip using DAPI II Counterstain (Vysis Inc., Downers Grove, Ill.). Slides were viewed using a Zeiss Axioplan 2 Immunofluorescence Microscope (Mannheim, Germany) with Image-Pro® Plus 4.1 software (Media Cybernetics, L.P., Silver Spring, Md.).
To assess the effects of βIII downregulation on microtubule organization, immunofluorescence staining was performed on transfected Calu-6 cells as follows. Briefly, siRNA transfected cells were plated in glass chamber slides and allowed to reach 70% confluence. Cells were then treated with 10 nM of paclitaxel or vincristine for 1 hour. Drug was then removed by washing cells with PBS and blocked in 10% FCS/PBS. For dual staining, cells were first labelled with an antibody to class III β-tubulin which was exposed to cells incubated at 37° C. for 30 minutes in a humidified chamber. Following washes in 0.1% Tween 20/PBS at room temperature, the slides were incubated with Cy3 anti-mouse fluorescent-tagged antibody (GE Healthcare) for 40 minutes in a humidified chamber in the dark at room temperature. Following incubation, the slides were washed again in 0.1% Tween 20/PBS. This was then followed by staining with α-tubulin and Cy2 anti-mouse fluorescent tagged antibody (GE Healthcare). Slides were mounted on a coverslip using DAPI II Counterstain (Vysis Inc., Downers Grove, Ill.). Immunofluorescence microscopy was performed and images were captured using a Sensicam Charged Coupled Device camera (PCO Imaging, Kelheim, Bavaria, Germany) and the Image-Pro® Plus 4.1 software (Media Cybernetics, L.P., Silver Spring, Md.).

The next assay concerns H460 cells. As to the kind of experiment: Cell cycle analysis by flow cytometry (propidium iodide). The settings on record: 24 h. The format is cell-based, Human. Here is the method: The distribution of DNA content in βII or βIVb tubulin siRNA-transfected H460 cells was determined by flow cytometry. After 72 h transfection, transfected cells were exposed to vincristine at 5 nM or 40 nM concentrations for 24 h. On the day of analysis, both adherent and floating cells were harvested, washed with PBS and then stained with a solution containing 0.4% Triton® X-100 (Sigma), 50 μg/ml propidium iodide (Sigma), and 2 μg/ml DNase-free RNase (Roche, Indianapolis, Ind.) in the dark for 15 min at 37′C. DNA content was measured by a FACSCalibur flow cytometer (Becton Dickinson, San Diego, Calif.). The flow rate was <200 nuclei per second and 10,000 cells from each sample were analysed. Measurements were performed under the same instrumental settings. The CellQuest® program was used to quantitate the distribution of cells in each cell cycle phase: sub-G1 (apoptotic cells), G1, S and G2/M.
To determine whether βIII-tubulin silencing affects the cell cycle profiles, cell cycle analysis using flow cytometry was performed. Cell cycle analysis was determined by transfecting H460 cells with siRNA for 72 h and harvesting (adherent and suspension) cells 24 h after drug treatment. DNA content was stained for 15 min at 37° C. with a solution containing 0.4% Triton® X-100 (Sigma-Aldrich), 50 μg/ml propidium iodide (Sigma-Aldrich), and 2 μg/ml DNAse-free RNAse (Roche, Indianapolis, Ind.). The cells were then analyzed for cell cycle perturbation using a FACSCalibur (Becton-Dickinson, Franklin Lakes, N.J.). The CellQuest® program was used to quantitate the distribution of cells in each cell cycle phase: sub-G1(apoptotic cells), G1, S and G2/M.

The test system of another assay is CCRF-CEM Leukaemia cells. The class given is cell-based. The conditions noted are these: lowest resistant subline CEM/2ME2-3.6R only. From the text: The tubulin-binding agent 2-methoxyestradiol (2ME2) binds to β-tubulin near the colchicine-binding site, inhibits microtubule polymerization, and induces mitotic arrest. CCRF-CEM Leukaemia cells that display increasing resistance to 2ME2 were selected, and four of the highly 2ME2 resistant leukaemia sublines were chosen for detailed analysis.

Setting [3] is: 27-mer βIII siRNA Sequence-8 H460 cells.
[4] abbreviates: 27-mer βIII siRNA Sequence-11 H460 cells.
The mark [5] stands for this setting: class II β-tubulin siRNA knockdown vs controls.
The mark [6] stands for this setting: class IVb β-tubulin siRNA knockdown vs controls.

Each structure is given as a SMILES string. Read-outs that look alike come from different tables or passages of the source.

As to `CC[C@]1(O)C[C@H]2CN(CCc3c([nH]c4ccccc34)[C@@](C(=O)OC)(c3cc4c(cc3OC)N(C=O)[C@H]3[C@@](O)(C(=O)OC)[C@H](OC(C)=O)[C@]5(CC)C=CCN6CC[C@]43[C@@H]65)C2)C1` [VCR, vincristine], the IC50 stood at 1.68 ± 0.116 nM in the assay on NSCLC H460 cells (setting [3]), 2.95 ± 0.175 nM with NSCLC H460 cells (setting [4]), 4.25 ± 0.18 nM in the assay with NSCLC H460 cells (Ctrl-1 (27-mer control siRNA) H460 cells) and 3.99 ± 0.158 nM in the assay on NSCLC H460 cells (mock-transfected H460 cells). Also, the “RS (relative sensitivity)” value in the assay with NSCLC H460 cells (setting [3]) was “(2.37, <0.0001***)”; in the assay with NSCLC H460 cells (setting [4]), “(1.34, 0.001**)”; in the assay with NSCLC H460 cells (Ctrl-1 H460 cells) it was “(0.94, NS)”. Further, the “change in drug sensitivity (clonogenic survival)” value in the assay on NSCLC H460 cells (setting [5]) is recorded as “significantly sensitized”; in the assay on NSCLC H460 cells (setting [6]), “precipitous drop in surviving colonies”; in the assay with NSCLC H460 cells (βIII-tubulin siRNA silencing vs controls), “significant increase in sensitivity”; in the assay with Calu-6 cells [1] (setting [5]) it was “significantly sensitized”; in the assay with Calu-6 cells [1] (setting [6]), “hypersensitive”. Moreover, the microtubule morphology result is on record as “dramatic disruption of the microtubule cytoskeleton” in the assay with Calu-6 cells [2] (βII siRNA-transfected Calu-6, 10 nM drug); “extensive disruption of the microtubule cytoskeleton” in the assay with Calu-6 cells [2] (βIII siRNA-transfected Calu-6, 10 nM drug); “dramatic disruption of the microtubule cytoskeleton” in the assay with Calu-6 cells [2] (βIVb siRNA-transfected Calu-6, 10 nM drug). The cell cycle profile entry in the assay with H460 cells (βII siRNA transfectants, 5 nM) is “increase in the G2/M and sub-G1 populations”; with H460 cells (βII siRNA transfectants, 40 nM) it was “greater G2/M accumulation”; in the assay with H460 cells (βIVb siRNA transfectants, 5 nM), “increase in the G2/M and sub-G1 populations”; in the assay on H460 cells (βIVb siRNA transfectants, 40 nM), “failed to undergo G2/M arrest”. Moreover, in the assay with CCRF-CEM Leukaemia cells, the cross-resistance result is reported as “cross-resistance”.
